# Results: patent US8529872B2, “Seeds and markers for use in imaging” (Board of Regents, The University of Texas System, priority 2007, dated 2013)
# Like-named read-outs stand apart in the source and are kept apart here.
# Assays:
# [1] = cited from earlier work
# [2] = Octanol-water partition coefficient; assay type: physicochemical
# Method: […] The resulting biphasic solution was shaken vigorously for two hours at which point 400 μL of the octanol layer and 400 μL of the water layer were removed. The solvent from each sample was removed under reduced pressure and the mass of the compound in the octanol sample was divided by the mass of the compound in the water sample. This experiment was repeated in triplicate, and the results were averaged to give the Log (Poct/wat) values. All complexes were completely soluble in the mixture of octanol and water.
# [3] = pH of aqua solution of contrast agent; assay type: physicochemical
# Method: For preparation of aqua solution of contrast agent, the as-synthesized cobalt/glycine crystallites were dissolved in distillated water (0.3-10 wt %) and stirred at the room temperature with a magnetic stir bar for 1 h and then sonicated for 30 min.
# The value of pH varied from 2.6 to 6.5.
# [4] = Viscosity of contrast agent solution (Brookfield viscometer); assay type: physicochemical; details: room temperature
# Method: Viscosity of contrast agent solution was measured at room temperature by using Brookfield digital viscometer DV-II.
# [5] = Surface tension of contrast agents (Fisher 21 tensiometer); assay type: physicochemical
# Description: The Fisher 21 tensiometer was used to measure surface tension of contrast agents with accuracy t within +/−0.25%.
# [6] = Magnetic properties of contrast agent solutions by VSM; assay type: physicochemical
# Method: The magnetic properties of contrast agent solutions were determined by VSM (Vibrating Sample Magnetometer) at room temperature and magnetic field up to 1.5 T.
# FIG. 20a-20d show the magnetic properties of various aqua solutions of Co/glycine with concentration 1, 3, 5, 8 and 10%.
# [7] = MR relaxation measurements of C4 complex at 1.5 T; assay type: physicochemical; details: for T1 (ms) μ / T2 (ms) μ: 1.5T, 23° C.
# Method: (§1) MR imaging measurements were performed on a 1.5 T clinical scanner (Excite HD, GEHT, Waukesha, Wis.) to characterize the relaxation properties of the new cobalt complex after each new modification of the C4 chemistry was made. Several iterations were performed before obtaining a stable sample. Additional measurements at 3.0 T (Excite HD, GEHT, Waukesha, Wis.) were made once the design of the C4 complex was stable. Each session or iteration (n=5) took approximately 2 hours to collect all the relaxation data.
# […] Theses solutions were placed in a water bath and imaged at room temperature (23° C.). Experiments were performed to ascertain the spin-lattice relaxivity (R1), spin-spin relaxivity (R2) and true spin-spin relaxivity (R2*) at 1.5 T and 3 T using a volume knee coil to excite and receive the MR signal.
# (§2) R1 measurements were performed using a spin-echo inversion recovery (SE-IR) sequence with parameters: Inversion Time (TI)={0.05, 0.1, 0.2, 0.3, 0.4, 0.5, 0.6, 0.7, 0.8, 0.9, 1.0, 1.2, 1.4, 1.6, 1.8, 2.0} sec, Pulse Repetition Time (TR)=5000, Time to Echo (TE)=10 ms, slice thickness=3 mm, acquisition matrix=256 (frequency)×128 (phase), receiver bandwidth (rBW)=±15 kHz and the number of excitations (NEX)=1.
# (§3) R2 measurements were carried out using an SE sequence with parameters: TE={15, 20, 40, 60, 100, 150, 200, 250, 300 and 500 ms}, TR=5000 ms, slice thickness=3 mm, matrix size=256×128, rBW=±15 kHz and NEX=1.
# (§4) The slopes of R1 and R2 curve versus concentration were used to determine the relaxivity (r1 and r2) in mM^−1 s^−1 as shown in the following tables. A weighted least-linear squares fitting routine was written in MATLAB to calculate the fit parameters accounting for the uncertainty as well as calculating the net uncertainty in the derived measurement. Note that in the final quantitative analysis, R2* measurements are excluded since the samples seemed to have interfering magnetic effects that could alter results.
# [8] = MR relaxation measurements of C4 complex at 3.0 T; assay type: physicochemical; details: 3.0T; for T1 (ms) μ / T2 (ms) μ: 23° C.
# Method: as §1
# Concentrations of the complex were prepared in 0.1%, 0.3%, 0.5%, 0.75% and 1.0% solutions provided by the UH group. Theses solutions were placed in a water bath and imaged at room temperature (23° C.). Experiments were performed to ascertain the spin-lattice relaxivity (R1), spin-spin relaxivity (R2) and true spin-spin relaxivity (R2*) at 1.5 T and 3 T using a volume knee coil to excite and receive the MR signal.
# as §2, §3, §4
# [9] = Characterization of the C4 complex at 7 T; assay type: physicochemical; design: T2 / T1 / T2* / T2*-2: unit not given here; details: for T2*-2: second T2* measurement
# Method: […] Characteristic T1, T2, and T2* relaxation times of the preparations were measured at each concentration. T1 measurements were made using a fast spin-echo saturation-recovery sequence (TE=63 ms; TR=400 ms, 500 ms, 1000 ms, 1500 ms, 2500 ms, 500 ms; FOV=3.2 cm×3.2 cm; matrix=64×64; echo train length=12; slice thickness=1 mm). T2 measurements were made using a CPMG multi-spin-echo sequence (TE=n×15 ms, 1≦n≦24; TR=1100 ms). T2* measurements were made using a multi-gradient echo sequence (TE=1.5 ms+n×[…], 0≦n≦15; TR=500 ms, 4000 ms). The image matrix and slice prescription for all measurements were kept constant. The characteristic T1, T2, and T2* relaxation time constants of each compartment were measured using Paravision 4.0, and the relaxivities of the contrast agent were estimated by fitting measured data to the Solomon-Bloembergen-Morgan model using Matlab.
# [10] = Temporal stability of R1 of the cobalt complex; assay type: physicochemical; details: taken 54 days apart
# [11] = T1 relaxivity of Gd-chelated polymeric contrast agent at 1.5 T; assay type: physicochemical
# Description: A Gd-chelated polymeric MRI contrast agent 20 (Gd Hydrogel) based on a biodegradable, biocompatible poly(L-glutamic acid) (L-PG) backbone was also synthesized and characterized. […] “Blooming” occurs with MR imaging when the contrast agent 20 is encapsulated by titanium and cannot be visualized due to the susceptibility artifacts
# To characterize the contrast agents 20, they were filtrated and injected into the glass capillary tube with 4 mm in length and OD=0.8 mm, ID=0.5 mm with volume of 0.5-1 μL. Water-proton relaxivities were measured at variable temperature (278-335 K), and as a function of magnetic field (1.5 T, 3 T, 4.7 T, and 7 T). Slight differences between the relaxivities of these agents at different field strengths will require slightly different concentrations for optimal visibility at these field strengths. By pH dependency of the proton relaxivities we will evaluate the synthesized CAM for pH-responsive MRI contrast agent 20 applications. Although 4.7 T is not a field strength commonly associated with clinical MRI, it complements the data collected at more clinically relevant field strengths and helps to identify trends in agent relaxivity.
# [12] = 1.5 T (23° C.), De Bazelaire 2004
compound,measurement,setting,value
CNC[C@H](O)[C@@H](O)[C@H](O)[C@H](O)CO.CNC[C@H](O)[C@@H](O)[C@H](O)[C@H](O)CO.O=C([O-])CN(CCN(CC(=O)[O-])CC(=O)O)CCN(CC(=O)[O-])CC(=O)O.[Gd+3] [Magnevist],r2/r1,[1]; [12],1.12±0.01
same,relaxivity r1,[1]; [12],4.68 ± 0.06 mM/s
same,relaxivity r2,[1]; [12],5.57 ± 0.07 mM/s
same,relaxivity,"[1]; 1.5 T in phosphate-buffered saline, Unger 1999",4.1 mM⁻¹ s⁻¹
same,T1 relaxivity,"[1]; 7 T, for reference",approximately 5.3 (mM·s)^−1
(CoCl2)n(C2H5NO2)1-n [Example C4],"Partition Coefficient, Log P",[2]; contrast agent solution 0.5 %,(−0.15) −
same,"Partition Coefficient, Log P",[2]; contrast agent solution 5 %,(−0.09)
same,pH,[3]; contrast agent solution 0.5 %,6.1
same,pH,[3]; contrast agent solution 5 %,3.2
same,Viscosity,[4]; contrast agent solution 0.5 %,1.0 cP
same,Viscosity,[4]; contrast agent solution 5 %,1.1 cP
same,Surface tension,[5]; contrast agent solution 0.5 %,72.8 dynes/cm
same,Surface tension,[5]; contrast agent solution 5 %,73.6 dynes/cm
same,Magnetic properties,[6]; contrast agent solution 0.5 %,paramagnetic
same,Magnetic properties,[6]; contrast agent solution 5 %,paramagnetic
same,T1 relaxation time,[7]; 0.1%-8.25 mM,782 ms
same,relaxivity r1,[7]; 1.5 T,0.086 ± 0.006 mM/s
same,"relaxivity r1, Slope μ",[7]; 1.5 T,0.086 mM⁻¹ s⁻¹
same,relaxivity r2,[7]; 1.5 T,0.097 ± 0.010 mM/s
same,T1 (ms) μ,"[7]; 0.10 % Wt, 8.25 mM",782.0 ms
same,T2 (ms) μ,"[7]; 0.10 % Wt, 8.25 mM",836.0 ms
same,T1 (ms) μ,"[7]; 0.30 % Wt, 24.76 mM",379.0 ms
same,T2 (ms) μ,"[7]; 0.30 % Wt, 24.76 mM",354.0 ms
same,T1 (ms) μ,"[7]; 0.50 % Wt, 41.27 mM",235.0 ms
same,T2 (ms) μ,"[7]; 0.50 % Wt, 41.27 mM",215.0 ms
same,T1 (ms) μ,"[7]; 0.75 % Wt, 61.90 mM",172.0 ms
same,T2 (ms) μ,"[7]; 0.75 % Wt, 61.90 mM",153.0 ms
same,T1 (ms) μ,"[7]; 1.00 % Wt, 82.53 mM",130.0 ms
same,T2 (ms) μ,"[7]; 1.00 % Wt, 82.53 mM",120.0 ms
same,T1 relaxation time,[7]; 10%-825 mM,61 ms
same,"relaxivity r1, Slope μ",[8],0.070 mM⁻¹ s⁻¹
same,T1 (ms) μ,"[8]; 0.10 % Wt, 8.25 mM",866.0 ms
same,T2 (ms) μ,"[8]; 0.10 % Wt, 8.25 mM",530.0 ms
same,T1 (ms) μ,"[8]; 0.30 % Wt, 24.76 mM",432.0 ms
same,T2 (ms) μ,"[8]; 0.30 % Wt, 24.76 mM",215.0 ms
same,T1 (ms) μ,"[8]; 0.50 % Wt, 41.27 mM",288.0 ms
same,T2 (ms) μ,"[8]; 0.50 % Wt, 41.27 mM",124.0 ms
same,T1 (ms) μ,"[8]; 0.75 % Wt, 61.90 mM",202.0 ms
same,T2 (ms) μ,"[8]; 0.75 % Wt, 61.90 mM",104.0 ms
same,T1 (ms) μ,"[8]; 1.00 % Wt, 82.53 mM",164.0 ms
same,T2 (ms) μ,"[8]; 1.00 % Wt, 82.53 mM",105.0 ms
same,R1 (T1 relaxivity estimate),[9],R1 = 0.0979
same,T1 relaxivity,[9],0.0979 mM/s
same,T2* relaxivity,[9],~0.618 mM/s
same,T2 relaxivity,[9],0.502 mM/s
same,T1,[9]; 8.25 mM,980.805
same,T2,[9]; 8.25 mM,74.85
same,T2*,[9]; 8.25 mM,141.415
same,T2*-2,[9]; 8.25 mM,146.68
same,T1,[9]; 24.76 mM,524.66
same,T2,[9]; 24.76 mM,45.175
same,T2*,[9]; 24.76 mM,50.42
same,T2*-2,[9]; 24.76 mM,52.755
same,T1,[9]; 41.27 mM,533.955
same,T2,[9]; 41.27 mM,31.14
same,T2*,[9]; 41.27 mM,32.37
same,T2*-2,[9]; 41.27 mM,34.135
same,T1,[9]; 61.9 mM,160.45
same,T2,[9]; 61.9 mM,22.96
same,T2*,[9]; 61.9 mM,24.85
same,T2*-2,[9]; 61.9 mM,25.55
same,T1,[9]; 82.53 mM,116.5
same,T2,[9]; 82.53 mM,20.84
same,T2*,[9]; 82.53 mM,17.99
same,T2*-2,[9]; 82.53 mM,17.64
same,degradation or breakdown over time: difference between two R1 measurements,[10],no statistically significant difference was observed
L-PG-Bz-DTPA-Gd,T1 relaxivity,[11],25 mM⁻¹ s⁻¹
same,"T1 relaxivity, times greater than that of Gd-DTPA",[11],more than 6 times
